Results reported in patent US20240165243A1, “EGFR DEGRADERS AND METHODS OF USE” (BeiGene Switzerland GmbH, priority 2021, published 2024).

Test system: EGFR (Del19/T790M/C797S)
Experiment: Cell degradation HTRF assay, H1975-clone #28 cells
Assay type: cell-based
Conditions: H1975-clone #28 (Del19/T790M/C797S) cells, 16 h treatment; for DC50: HTRF, read-out: H1975-clone#28 DTC DC50; for H1975-clone#28 DTC Dmax (%): maximum percentage of degradation
Experimental: Cell Degradation of Example 124-189
H1975-#28 and H1975-#25 cells are treated with compounds diluted in 0.2% DMSO cell culture medium on day 2, incubate for 16 h, 37° C., 5% CO2. the final concentration of compounds in all assay is start with 10 uM, 5-fold dilution, total 8 doses were included.
After 16 h treatment, add HTRF lysis buffer to each well; seal the plate and incubate 1 hour at room temperature on a plate shaker; Once the cells are lysed, 16 μL of cell lysate are transferred to a PE 384-well HTRF detection plate; 4 μL of pre-mixed HTRF antibodies are added to each well; Cover the plate with a plate sealer, spin 1000 rpm for 1 min, Incubate overnight at room temperature; Read on BMG PheraStar with HTRF protocol (337 nm-665 nm-620 nm).
The inhibition (degradation) percentage of the compound was calculated by the following equation:
Inhibition percentage of Compound=100−100×(Signal−low control)/(High control−low control), wherein signal=each test compound group.
High control=Cell group with added DMSO and without compound, indicating microplate readings without EGFR degradation;
Dmax is the maximum percentage of inhibition (degradation).
The IC50 (DC50) value of a compound can be obtained by fitting the following equation
Y=Bottom+(TOP−Bottom)/(1+((IC50/X)^hillslope))
Wherein, X and Y are known values, and IC50, Hillslope, Top and Bottom are the parameters obtained by fitting with software. Y is the inhibition percentage (calculated from the equation), X is the concentration of the compound; IC50 is the concentration of the compound when the 50% inhibition is reached. The smaller the IC50 value is, the stronger the inhibitory ability of the compound is. Vice versa, the higher the IC50 value is, the weaker the ability the inhibitory ability of the compound is; Hillslope represents the slope of the fitted curve, generally around 1*; Bottom represents the minimum value of the curve obtained by data fitting, which is generally 0%±20%; Top represents the maximum value of the curve obtained by data fitting, which is generally 100%±20%. The experimental data were fitted by calculating and analyzing with Dotmatics data analysis software. When Dmax<50%, DC50 will be automatically assigned as larger than […].

Compound | DC50 [nM] | H1975-clone#28 DTC Dmax (%)
CCc1cc(Nc2ncc(Br)c(Nc3cnc4ccccc4c3P(C)(C)=O)n2)c(OC)cc1N1CCC(N2CCN(CCc3ccc4c(c3)C(C)(C)C(=O)N4C3CCC(=O)NC3=O)CC2)CC1 (stereo not shown) [Example 175, 3-(5-(2-(4-(1-(4-((5-bromo-4-((4-(dimethylphosphoryl)quinolin-3-yl)amino)pyrimidin-2-yl)amino)-2-ethyl-5-methoxyphenyl)piperidin-4-yl)piperazin-1-yl)ethyl)-3,3-dimethyl-2-oxoindolin-1-yl)piperidine-2,6-dione] | 5.5 | 47
CCc1cc(Nc2ncc(Br)c(Nc3cnc4ccccc4c3P(C)(C)=O)n2)c(OC)cc1N1CCC(N2CCN(CCc3ccc4c(c3)oc(=O)n4C3CCC(=O)NC3=O)CC2)CC1 (stereo not shown) [Example 176, 3-(6-(2-(4-(1-(4-((5-bromo-4-((4-(dimethylphosphoryl)quinolin-3-yl)amino)pyrimidin-2-yl)amino)-2-ethyl-5-methoxyphenyl)piperidin-4-yl)piperazin-1-yl)ethyl)-2-oxobenzo[d]oxazol-3(2H)-yl)piperidine-2,6-dione] | 1.6 | 73
CCc1cc(Nc2ncc(Br)c(Nc3cnc4ccccc4c3P(C)(C)=O)n2)c(OC)cc1N1CCC(N2CCN(C(=O)C3CC4(C3)CN(c3cc(F)c(C5CCC(=O)NC5=O)c(F)c3)C4)CC2)CC1 (stereo not shown) [Example 178, 3-(4-(6-(4-(1-(4-((5-bromo-4-((4-(dimethylphosphoryl)quinolin-3-yl)amino)pyrimidin-2-yl)amino)-2-ethyl-5-methoxyphenyl)piperidin-4-yl)piperazine-1-carbonyl)-2-azaspiro[3.3]heptan-2-yl)-2,6-difluorophenyl)piperidine-2,6-dione] | 2.6 | 67
COc1cc(N2CCC(N3CCN(C(=O)C4CN(c5cccc6c5n(C)c(=O)n6C5CCC(=O)NC5=O)C4)CC3)CC2)c(C)cc1Nc1ncc(Br)c(Nc2cnc3ccccc3c2P(C)(C)=O)n1 (stereo not shown) [Example 179, 3-(4-(3-(4-(1-(4-((5-bromo-4-((4-(dimethylphosphoryl)quinolin-3-yl)amino)pyrimidin-2-yl)amino)-5-methoxy-2-methylphenyl)piperidin-4-yl)piperazine-1-carbonyl)azetidin-1-yl)-3-methyl-2-oxo-2,3-dihydro-1H-benzo[d]imidazol-1-yl)piperidine-2,6-dione] | 2.6 | 54
CCc1cc(Nc2ncc(Br)c(Nc3cnc4ccccc4c3P(C)(C)=O)n2)c(OC)cc1N1CCC(N2CCN(CCc3cc(F)c(C4CCC(=O)NC4=O)c(F)c3F)CC2)CC1 (stereo not shown) [Example 180, 3-(4-(2-(4-(1-(4-((5-bromo-4-((4-(dimethylphosphoryl)quinolin-3-yl)amino)pyrimidin-2-yl)amino)-2-ethyl-5-methoxyphenyl)piperidin-4-yl)piperazin-1-yl)ethyl)-2,3,6-trifluorophenyl)piperidine-2,6-dione] | 2 | 83
CCc1cc(Nc2ncc(Br)c(Nc3cnc4c(F)cccc4c3P(C)(C)=O)n2)c(OC)cc1N1CCC(N2CCN(CCc3cc(F)c(C4CCC(=O)NC4=O)c(F)c3)CC2)CC1 (stereo not shown) [Example 181, 3-(4-(2-(4-(1-(4-((5-bromo-4-((4-(dimethylphosphoryl)-8-fluoroquinolin-3-yl)amino)pyrimidin-2-yl)amino)-2-ethyl-5-methoxyphenyl)piperidin-4-yl)piperazin-1-yl)ethyl)-2,6-difluorophenyl)piperidine-2,6-dione] | 4.2 | 82
CCc1cc(Nc2ncc(Br)c(Nc3cnc4c(F)cccc4c3P(C)(C)=O)n2)c(OC)cc1N1CCC(N2CCN(C(=O)C3CCN(c4ccc5c(c4)C(C)(C)C(=O)N5C4CCC(=O)NC4=O)CC3)CC2)CC1 (stereo not shown) [Example 182, 3-(5-(4-(4-(1-(4-((5-bromo-4-((4-(dimethylphosphoryl)-8-fluoroquinolin-3-yl)amino)pyrimidin-2-yl)amino)-2-ethyl-5-methoxyphenyl)piperidin-4-yl)piperazine-1-carbonyl)piperidin-1-yl)-3,3-dimethyl-2-oxoindolin-1-yl)piperidine-2,6-dione] | 0.8 | 56
CCOc1cc(N2CCC(N3CCN(CCc4cc(F)c(C5CCC(=O)NC5=O)c(F)c4)CC3)CC2)c(C)cc1Nc1ncc(Br)c(Nc2cnc3ccccc3c2P(C)(C)=O)n1 (stereo not shown) [Example 183, 3-(4-(2-(4-(1-(4-((5-bromo-4-((4-(dimethylphosphoryl)quinolin-3-yl)amino)pyrimidin-2-yl)amino)-5-ethoxy-2-methylphenyl)piperidin-4-yl)piperazin-1-yl)ethyl)-2,6-difluorophenyl)piperidine-2,6-dione] | 4.6 | 73
CCc1cc(Nc2ncc(Br)c(Nc3cnc4ccccc4c3P(C)(C)=O)n2)c(OC)cc1N1CCC(N2CCN([C@H]3C[C@H](c4cc(F)c(C5CCC(=O)NC5=O)c(F)c4)C3)CC2)CC1 (stereo partly shown) [Example 184, 3-(4-((1r,3r)-3-(4-(1-(4-((5-bromo-4-((4-(dimethylphosphoryl)quinolin-3-yl)amino)pyrimidin-2-yl)amino)-2-ethyl-5-methoxyphenyl)piperidin-4-yl)piperazin-1-yl)cyclobutyl)-2,6-difluorophenyl)piperidine-2,6-dione] | 1.5 | 81
CCc1cc(Nc2ncc(Br)c(Nc3cnc4ccccc4c3P(C)(C)=O)n2)c(OC)cc1N1CCC(N2CCN(C(=O)C3CCN(c4cc(F)c(C5CCC(=O)NC5=O)c(F)c4)CC3)CC2)CC1 (stereo not shown) [Example 185, 3-(4-(4-(4-(1-(4-((5-bromo-4-((4-(dimethylphosphoryl)quinolin-3-yl)amino)pyrimidin-2-yl)amino)-2-ethyl-5-methoxyphenyl)piperidin-4-yl)piperazine-1-carbonyl)piperidin-1-yl)-2,6-difluorophenyl)piperidine-2,6-dione] | 1.2 | 71
CCc1cc(Nc2ncc(Br)c(Nc3cnc4ccccc4c3P(C)(C)=O)n2)c(OCC(F)(F)F)cc1N1CCC(N2CCN(CCC3CCN(c4cc(F)c(C5CCC(=O)NC5=O)c(F)c4)CC3)CC2)CC1 (stereo not shown) [Example 186, 3-(4-(4-(2-(4-(1-(4-((5-bromo-4-((4-(dimethylphosphoryl)quinolin-3-yl)amino)pyrimidin-2-yl)amino)-2-ethyl-5-(2,2,2-trifluoroethoxy)phenyl)piperidin-4-yl)piperazin-1-yl)ethyl)piperidin-1-yl)-2,6-difluorophenyl)piperidine-2,6-dione] | 8 | 72
CCc1cc(Nc2ncc(Br)c(Nc3cnc4ccccc4c3P(C)(C)=O)n2)c(OCC(F)(F)F)cc1N1CCC(N2CCN(CCc3cc(F)c(C4CCC(=O)NC4=O)c(F)c3)CC2)CC1 (stereo not shown) [Example 187, 3-(4-(2-(4-(1-(4-((5-bromo-4-((4-(dimethylphosphoryl)quinolin-3-yl)amino)pyrimidin-2-yl)amino)-2-ethyl-5-(2,2,2-trifluoroethoxy)phenyl)piperidin-4-yl)piperazin-1-yl)ethyl)-2,6-difluorophenyl)piperidine-2,6-dione] | 3.3 | 69
CCc1cc(Nc2ncc(Br)c(Nc3cnc4ccccc4c3P(C)(C)=O)n2)c(OC)cc1N1CCC(N2CCN(CCc3cccc4c3oc(=O)n4C3CCC(=O)NC3=O)CC2)CC1 (stereo not shown) [Example 188, 3-(7-(2-(4-(1-(4-((5-bromo-4-((4-(dimethylphosphoryl)quinolin-3-yl)amino)pyrimidin-2-yl)amino)-2-ethyl-5-methoxyphenyl)piperidin-4-yl)piperazin-1-yl)ethyl)-2-oxobenzo[d]oxazol-3(2H)-yl)piperidine-2,6-dione] | 0.8 | 84
CCc1cc(Nc2ncc(Br)c(Nc3cnc4ccccc4c3P(C)(C)=O)n2)c(OC)cc1N1CCC(N2CCN(C(=O)CN(C)c3cc(F)c(C4CCC(=O)NC4=O)c(F)c3)CC2)CC1 (stereo not shown) [Example 189, 3-(4-((2-(4-(1-(4-((5-bromo-4-((4-(dimethylphosphoryl)quinolin-3-yl)amino)pyrimidin-2-yl)amino)-2-ethyl-5-methoxyphenyl)piperidin-4-yl)piperazin-1-yl)-2-oxoethyl)(methyl)amino)-2,6-difluorophenyl)piperidine-2,6-dione] | 2.4 | 77
